Reference: ChEMBL document CHEMBL5046292, “Resveratrol-Based MTDLs to Stimulate Defensive and Regenerative Pathways and Block Early Events in Neurodegenerative Cascades” (J Med Chem, 2022)
One block for each compound: values may come before it. Active and inactive are the calls of the source. The rule behind the calls is not given here.

Experiments:
[1] = target: T1, Nuclear factor erythroid 2-related factor 2 (Homo sapiens) (UniProt Q16236); details: Arec32, time 24.0 hrs
T1 sequence (whole entry): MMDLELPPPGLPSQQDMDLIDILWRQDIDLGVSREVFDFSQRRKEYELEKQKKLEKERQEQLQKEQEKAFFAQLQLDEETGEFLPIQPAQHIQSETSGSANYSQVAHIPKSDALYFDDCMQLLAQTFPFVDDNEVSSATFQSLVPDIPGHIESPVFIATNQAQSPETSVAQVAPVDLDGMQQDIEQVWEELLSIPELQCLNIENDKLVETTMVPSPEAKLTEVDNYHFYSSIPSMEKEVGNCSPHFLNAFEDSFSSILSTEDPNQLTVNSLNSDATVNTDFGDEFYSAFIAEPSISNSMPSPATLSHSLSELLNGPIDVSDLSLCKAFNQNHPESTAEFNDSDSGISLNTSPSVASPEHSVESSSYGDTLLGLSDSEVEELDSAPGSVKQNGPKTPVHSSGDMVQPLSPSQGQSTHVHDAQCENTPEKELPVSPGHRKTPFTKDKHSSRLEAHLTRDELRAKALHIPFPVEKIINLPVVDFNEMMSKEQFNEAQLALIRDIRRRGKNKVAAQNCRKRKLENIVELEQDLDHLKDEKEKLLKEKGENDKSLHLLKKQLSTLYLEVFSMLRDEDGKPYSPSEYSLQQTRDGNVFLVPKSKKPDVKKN

SH-SY5Y = test: (§1) Cytotoxicity against human SH-SY5Y cells assessed as cell viability at 100 uM incubated for 24 hrs by MTT assay; assay type: toxicity, cell-based; details: sh-sy5y, 24 h, 100 µM
in vitro = details: PAMPA, pH 7.4
Description: Permeability of compound in PBS buffer at pH 7.4 by PAMPA-BBB assay

Hippocampal neurone [2] = test: Induction of neurogenesis in C57BL/6 mouse assessed as increase in cell migration distance by confocal microscopic analysis; assay type: functional, cell-based
Hippocampal neurone [3] = test: Induction of neurogenesis in C57BL/6 mouse hippocampus neurospheres assessed as upregulation of TuJ-1 by confocal microscopic analysis; assay type: functional, cell-based
Hippocampal neurone [4] = test: Induction of neurogenesis in C57BL/6 mouse hippocampus neurospheres assessed as upregulation of MAP-2 by confocal microscopic analysis; assay type: functional, cell-based
[5] = target: T2, Amine oxidase [flavin-containing] B (Homo sapiens, UniProt P27338); test: Inhibition of human recombinant MAO-B at 15 microM preincubated upto 30 mins using tyramine as substrate by fluorescence assay relative to control; details: TDE = time-dependent effect
T2 sequence (P27338 whole entry): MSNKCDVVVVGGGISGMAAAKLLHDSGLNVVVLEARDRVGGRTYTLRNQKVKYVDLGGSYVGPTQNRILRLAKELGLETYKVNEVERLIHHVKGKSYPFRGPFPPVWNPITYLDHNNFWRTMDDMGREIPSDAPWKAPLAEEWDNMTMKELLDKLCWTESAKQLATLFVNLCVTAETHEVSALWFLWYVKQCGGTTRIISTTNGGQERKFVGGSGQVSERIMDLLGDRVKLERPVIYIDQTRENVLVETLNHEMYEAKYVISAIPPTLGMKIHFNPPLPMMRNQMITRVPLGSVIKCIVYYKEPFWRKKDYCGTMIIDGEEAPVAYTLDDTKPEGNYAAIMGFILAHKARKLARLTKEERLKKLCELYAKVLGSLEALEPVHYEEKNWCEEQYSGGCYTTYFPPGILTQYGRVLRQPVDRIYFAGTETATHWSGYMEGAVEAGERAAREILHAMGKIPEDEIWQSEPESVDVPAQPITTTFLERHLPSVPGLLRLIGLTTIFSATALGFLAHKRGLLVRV

[6] = GSH reactivity in presence glutathione-S-transferas by HPLC-MS analysis; assay type: physicochemical
Hippocampus [7] = test: Neuroprotective activity in okadaic acid-induced toxicity in C57BL/6J mouse hippocampus slice assessed as cell viability at 1 uM measured after 6 hrs by MTT assay; assay type: functional, tissue-based
Hippocampus [8] = test: Neuroprotective activity in okadaic acid-induced toxicity in C57BL/6J mouse hippocampus slice assessed cell death at 1 uM after 6 hrs by propidium iodide staining; assay type: functional, tissue-based
Hippocampus [9] = test: Neuroprotective activity in okadaic acid-induced toxicity in C57BL/6J mouse hippocampus slice assessed reduction in ROS level at 1 uM after 6 hrs by H2DCFDA probe based fluorescence analysis; assay type: functional, tissue-based
Hippocampus [10] = test: Down regulation of okadaic acid-induced inducible nitric oxide synthase expression in C57BL/6J mouse hippocampus slice at 1 uM by Western blotting analysis; assay type: functional, tissue-based
Hippocampus [11] = test: Down regulation of okadaic acid induced p65 expression in C57BL/6J mouse hippocampus slice at 1 uM by Western blotting analysis; assay type: functional, tissue-based
Hippocampus [12] = test: Down regulation of okadaic acid induced HO-1 expression in C57BL/6J mouse hippocampus slice at 1 uM by Western blotting analysis; assay type: functional, tissue-based
[13] = as §1; assay type: toxicity, cell-based; details: SH-SY5Y cells, read-out: Activity
[14] = target: T2, Amine oxidase [flavin-containing] B; test: Inhibition of human recombinant MAO-B at 2 microM preincubated upto 30 mins using tyramine as substrate by fluorescence assay relative to control; details: TDE = time-dependent effect

SMILES: O=c1[nH]nc(/C=C/c2ccc3c(c2)OCO3)o1
CD [1]: > 60 µM

SMILES: O=c1[nH]nc(/C=C/c2ccc(O)c(O)c2)o1
Activity (SH-SY5Y): Non-Toxic

SMILES: C#CCNC(=O)/C=C/c1ccc(O)c(O)c1
Activity (SH-SY5Y): Non-Toxic
Papp (in vitro): ≤ 0.4 ×10⁻⁶ cm/s

SMILES: C#CCNC(=O)/C=C/c1ccc(O)c(OC)c1
CD [1]: > 60 µM
Papp (in vitro): ≤ 0.5 ×10⁻⁶ cm/s

SMILES: C#CCNC/C=C/c1ccc(O)c(OC)c1
Activity (SH-SY5Y): Non-Toxic

SMILES: C#CCNC(=O)/C=C/c1cccc(C#N)c1
CD [1]: > 60 µM

SMILES: COc1cc(/C=C/c2n[nH]c(=O)o2)cc(OC)c1OC
Papp (in vitro): ≤ 0.5 ×10⁻⁶ cm/s

SMILES: C#CCn1nc(/C=C/c2cccc(OC)c2)oc1=O
Activity (Hippocampal neurone [2]): Active
Activity (Hippocampal neurone [3]): Active
Activity (Hippocampal neurone [4]): Active
Activity (SH-SY5Y): Non-Toxic

SMILES: C#CCNC(=O)/C=C/c1ccc(O)cc1
CD [1]: > 60 µM

SMILES: Oc1ccc(/C=C/c2cc(O)cc(O)c2)cc1 [RESVERATROL]
viability at 24 h, 100 µM [13]: 50%

SMILES: O=c1[nH]nc(/C=C/c2cccc([N+](=O)[O-])c2)o1
Activity (Hippocampal neurone [2]): Active
Activity (Hippocampal neurone [3]): Active
Activity (Hippocampal neurone [4]): Active
Activity [14]: Tde

SMILES: O=c1[nH]nc(/C=C/c2cc(O)cc(O)c2)o1
CD [1]: > 60 µM
Papp (in vitro): ≤ 0.1 ×10⁻⁶ cm/s

SMILES: C#CCn1nc(/C=C/c2ccccc2)oc1=O
viability at 24 h, 100 µM [13]: 30%

More lines, main results first:

Papp (in vitro): ≤ 0.7 ×10⁻⁶ cm/s
SMILES: O=c1[nH]nc(/C=C/c2ccc(O)cc2)o1
Activity (SH-SY5Y): Non-Toxic

CD [1]: > 60 µM
SMILES: COc1ccc(/C=C/c2n[nH]c(=O)o2)cc1

Activity [5]: Tde
Activity [6]: Not Active
SMILES: C#CCn1nc(/C=C/c2ccc(OC)cc2)oc1=O
Activity (Hippocampal neurone [2]): Active
Activity (Hippocampal neurone [3]): Active
Activity (Hippocampal neurone [4]): Active
Activity (SH-SY5Y): Non-Toxic
Activity (Hippocampus [7]): Active
Activity (Hippocampus [8]): Active
Activity (Hippocampus [9]): Active
Activity (Hippocampus [10]): Active
Activity (Hippocampus [11]): Active
Activity (Hippocampus [12]): inactive

CD [1]: > 60 µM
SMILES: COc1ccc(/C=C/c2n[nH]c(=O)o2)cc1OC

CD [1]: > 60 µM
Papp (in vitro): ≤ 0.5 ×10⁻⁶ cm/s
SMILES: O=c1[nH]nc(/C=C/c2cccc(O)c2)o1
Activity (Hippocampal neurone [2]): Active
Activity (Hippocampal neurone [3]): Active
Activity (Hippocampal neurone [4]): Active

CD [1]: > 60 µM
SMILES: COc1cccc(/C=C/c2n[nH]c(=O)o2)c1
Activity (Hippocampal neurone [2]): Active
Activity (Hippocampal neurone [3]): Active
Activity (Hippocampal neurone [4]): Active
